According to ChEMBL document CHEMBL2177023, “Effects of antimalarial molecules on the gametocyte stage of Plasmodium falciparum: the debate” (J Med Chem, 2012):
Values belong to the compound of their own block, whether it stands above or below them.

What was measured:
Plasmodium falciparum [1] = test: Antimalarial activity against Plasmodium falciparum gametocytes; assay type: functional, organism-based
[2] = (§1) Half life in human plasma; assay type: ADME, cell-free
Plasmodium falciparum [3] = test: Antimalarial activity against Plasmodium falciparum gametocytes by GFP-luciferase reporter gene assay; assay type: functional, organism-based
Plasmodium falciparum [4] = test: Antimalarial activity against transgenic Plasmodium falciparum 3D7 GFP16B gametocytes; assay type: functional, organism-based
Plasmodium falciparum [5] = test: Antimalarial activity against Plasmodium falciparum KT3 gametocytes; assay type: functional, organism-based
Plasmodium falciparum [6] = test: Antimalarial activity against Plasmodium falciparum KT1 gametocytes; assay type: functional, organism-based
Plasmodium berghei [7] = test: Antimalarial activity against Plasmodium berghei infected in mosquitoes assessed as reduction in number of sporozoites; assay type: functional; set-up: scale not given: the % may be the effect or the level left
Plasmodium berghei [8] = test: Antimalarial activity against Plasmodium berghei infected in mosquitoes assessed as reduction in number of oocysts; assay type: functional; set-up: scale not given: the % may be the effect or the level left
Plasmodium chabaudi = test: Antimalarial activity against Plasmodium chabaudi infected rat malaria model; assay type: functional
Plasma = test: as §1; assay type: ADME, cell-free
Plasmodium falciparum [9] = test: Antimalarial activity against Plasmodium falciparum stage 3 to 5 gametocytes; assay type: functional, organism-based

SMILES: C=C(NC(=O)C(=C)NC(=O)c1csc(C2=N[C@@H]3c4csc(n4)[C@H]4NC(=O)c5csc(n5)[C@H]([C@](C)(O)[C@@H](C)O)NC(=O)[C@H]5CSC(=N5)/C(=C/C)NC(=O)[C@H]([C@@H](C)O)NC(=O)c5csc(n5)[C@]3(CC2)NC(=O)[C@H](C)NC(=O)C(=C)NC(=O)[C@H](C)NC(=O)[C@H]([C@@H](C)CC)N[C@@H]2C=Cc3c([C@H](C)O)cc(nc3[C@H]2O)C(=O)O[C@@H]4C)n1)C(N)=O [THIOSTREPTON]
- IC50 (Plasmodium falciparum [1]): < 10 µM

- half-life [2]: 14 days
SMILES: COc1cc(C)c2c(Oc3cccc(C(F)(F)F)c3)c(OC)cc(NC(C)CCCN)c2n1 (stereo unspecified) [TAFENOQUINE]

- IC50 (Plasmodium falciparum [3]): 12 nM
SMILES: CN(C)c1ccc2nc3ccc(=[N+](C)C)cc-3sc2c1 [METHYLENE BLUE CATION]

- IC50 (Plasmodium falciparum [4]): 23 nM
- IC50 (Plasmodium falciparum [5]): 20 nM
- IC50 (Plasmodium falciparum [6]): 6 nM
SMILES: COc1ccc2nc3cc(Cl)ccc3c(Nc3cc(CN4CCCC4)c(O)c(CN4CCCC4)c3)c2n1 [PYRONARIDINE]

SMILES: COc1cc(N[C@H](C)CCCN)c2nccc(C)c2c1Oc1ccc(Cl)c(Cl)c1
- IC50 (Plasmodium falciparum [1]): 3.8 µM

SMILES: COc1cc2cc(C(=O)Nc3cc(N)c4ccccc4c3CCCl)[nH]c2c(OC)c1OC [CENTANAMYCIN]
- Activity (Plasmodium berghei [7]): 99%
- Activity (Plasmodium berghei [8]): 83%
- ED50 (Plasmodium chabaudi): 1.5 mg/kg

- IC50 (Plasmodium falciparum [5]): 2100 nM
- IC50 (Plasmodium falciparum [6]): 800 nM
- t1/2 (Plasma): 0.03 weeks
SMILES: COc1cc(NC(C)CCCN)c2ncccc2c1 (stereo unspecified) [PRIMAQUINE]

- IC50 (Plasmodium falciparum [5]): 600 nM
- IC50 (Plasmodium falciparum [6]): 600 nM
SMILES: CN(C)Cc1ccc(Nc2c3ccccc3nc3ccccc23)cc1

- IC50 (Plasmodium falciparum [9]): 2 nM
SMILES: CC[C@H](C)[C@H](NC(=O)[C@H]([C@@H](C)CC)N(C)C(C)=O)C(=O)N[C@H](C(=O)N[C@@H](CC(C)C)C(=O)[C@@]1(C)CO1)[C@@H](C)O [EPOXOMYCIN]
